Measured values taken from patent publication US6407122B1, “Amino-benzothiazole derivatives” (Pharmacia & Upjohn S.p.A., priority 1997, dated 2002).

System: mixed cortical neuronal cultures
Assay: Neuroprotection against NMDA (500 μM) toxicity in mixed cortical neuronal cultures, Trypan Blue Dye Exclusion Test
Type: cell-based
Conditions: Rattus norvegicus, Cortical neurone; cultured cortical neurons from foetal rats; 3 min preincubation, 20 min exposure to NMDA 500 μM, viability after 24 hours; mean of at least 3 different experiments; read-out: EC50 (neuroprotective effect)
Method: The efficacy of the compounds of the invention as neuroprotective agents was evaluated in mixed cortical neuronal cultures, following the method reported below.
Mixed cortical neuronal cultures from foetal rats at 16 days of gestation were prepared as described by Choi (j. Neur. Sci. 7: 357-368, 1987). Briefly dissociated cells were plated on poly-L-lysine coated multiwell plates at density of 1*10^5 cells/cm^2 in MEM with Earle's salts supplemented with 21 mM D-glucose, 2 mM L-glutamine, 50 μg/ml Streptomicin, 50 IU Penicillin, 10% Foetal Calf Serum and 10% Horse Serum. Cultures were kept at 37° C., 5% CO2 and survived about 5 weeks. After 7 days in vitro, astrocites proliferation was inhibited by adding 10 μM Cytosine Arabinoside for 48 hours; the medium was subsequently substituted twice a week with a fresh medium without foetal call serum (Hatley, J. Pharm. and Exp. Ther. 250 (II);752-758, 1989).
Only nature cortical cultures, from 14 DIV on, were used for the study. Experiments were performed at 25° C. as follows: cells were washed once with a Locke's buffer, (128 mM NaCl, […], 1.2 mM Na2HPO4, 2.7 mM CaCl2, 20 mM Hepes and 10 mM D-glucose) pH=7.4, then preincubated with the test compounds for 3 min. followed by a 20 min. exposure to N-methyl-D-aspartate (NMDA) (500 μM).
The incubation was stopped by removing Locke's buffer and substituting the conditioned medium. […]

OC(CN1CCC(Cc2ccc(F)cc2)CC1)c1ccc(Cl)cc1 (centres unmarked) [Eliprodil]
EC50: 2260 nM

Nc1nc2ccc(CCN3CCC(Cc4ccccc4)CC3)cc2s1 [Example 15, 1-(2-Amino-benzothiazol-6-yl)-2-(4-benzyl-piperidin-1-yl)-ethane]
EC50: 640 nM
